Where a name gives a salt, the structure may show the parent alone. Read-outs that look alike come from different tables or passages of the source.
Legend:
[1] = Apparent solubility/extended kinetic solubility by UHPLC; type: physicochemical; settings: aqueous buffer, thermodynamic from solid, phosphate buffer, 37° C.
Description: Biological Assay—Determination of Apparent Solubility/Extended Kinetic Solubility by UHPLC
Test sample preparation: About 0.5 mg of the test sample was weighed and transferred in duplicate in 1 mL glass inserts of 96 well plates. 5 μL of DMSO and 1 ml of phosphate buffer were added. Allowed for equilibrium in an orbital shaker at 37° C. for 24 hrs. Later, allowed it cool to room temperature and centrifuged the 96 well plate (at 240×10 RPM for 20 min) and supernatant material was taken into collection plate, covered it with the heat resistant aluminum sheet or supernatant material was directly taken into HPLC sample vial.
Injected diluent as blank and linearity solutions in duplicate. Recorded the chromatograms and plotted the calibration curve, concentration (X-axis) versus Area (y-axis). The correlation coefficient for calibration curve should be not less than 0.95. If above criteria passes, then injected the test samples and recorded the chromatograms. In case saturated peaks are observed, then diluted the test sample with diluent as appropriate.
Calculated the slope and intercept of the calibration curve. From the standard curve, determined the solubility of the sample in μM (micromolar).

[2] = Plasma and tumor compound concentrations in CT26 tumor-bearing mice (LC-MS/MS); type: in vivo, BALB/c mice; settings: for concentration at 3.5 h / concentration at 8 h / concentration at 12 h: BALB/c, mouse, intravenous; for concentration at 12 h: 12 h (Table 3)
Description: (§1) Pharmacokinetic and Pharmacodynamic Profiling and Estimation of Immune Cell Infiltration in Tumors Following Treatment with Compounds 2, 6, 8, 12 and 14
(§2) Serum and tumor cytokine levels and corresponding compound concentrations in mouse plasma were determined following single-dose intravenous administration in CT26 (murine colorectal carcinoma) tumor-bearing mice. Briefly, naïve BALB/c mice in the age group of 6-8 weeks were inoculated with 0.1 million CT-26 cells/animal in phosphate buffered saline (PBS), subcutaneously. […] Blood and tumor samples were harvested at various time points up to 24 h post-dose. Tumor samples were homogenized and prepared for cytokine estimation (ELISA) and compound concentration were determined by LC-MS/MS. Serum aliquots and tumor samples were snap-frozen and stored at −80° C. till further analysis. Serum and tumor samples were evaluated for Interferon beta (IFNβ), interleukin-6 (IL-6) and tumor necrosis factor alpha (TNFα) by enzyme linked immunosorbent assay (ELISA) using kits from R & D systems (Quantikine mouse IL-6 and TNFα kits) and PBL biosciences (Verikine mouse IFNβ kit).
Bioanalysis of plasma and tumor samples: Plasma and tumor concentrations of test compounds were determined by LC-MS/MS method. Tumor samples were homogenized utilizing a bead-based homogenizer. Plasma samples and tumor homogenates were extracted using protein precipitation method with organic solution containing respective internal standards. Plasma and tumor concentrations were determined against respective calibration curve. Table 3 indicates the concentration of Compound 2 in plasma and tumor at different administered doses. Table 4 indicates the concentration of Compounds 6, 8, 12, and 14 in plasma and tumor at different administered doses. Table 5 indicates cytokine levels for Compound 2 in serum and tumor at different doses. Table 6 indicates cytokine levels for Compounds 6, 8, 12 and 14 in serum and tumor at 0.375 mpk.

[3] = test system: Interferon beta (IFNβ), interleukin-6 (IL-6) and tumor necrosis factor alpha (TNFα); experiment: Serum and tumor cytokine levels in CT26 tumor-bearing mice (ELISA); type: in vivo, BALB/c mice
Description: as §1, §2
Cytokine analysis from mouse serum samples: For IL-6 and TNFα estimation, 50 μL of test samples or internal standard or control were applied to wells in duplicates and incubated for 2 h at room temperature, followed by aspiration and washing four times with 400 μL of wash buffer. 100 μL of mouse IL-6 or TNFα conjugate solution was added and incubated further for 2 h at room temperature and followed later by 4 wash cycles. 100 μL of substrate solution was added to each well with addition of stop solution after 30 min. Optical density was measured at 450 nm averaged and was used for further calculations following subtraction of respective blank controls. Cytokine concentrations were determined by interpolating the optical density of samples into the reference standard curve utilizing four parameter logistic (4-PL) curve-fit. Cytokine concentrations were normalized with their respective dilution factors and represented in pg/mL. For IFNβ estimation, 100 μL test sample or internal standard or controls were applied to the wells in duplicates and incubated for 1 h at room temperature followed by three washes and addition of the anti-mouse IFNβ antibody solution with further 1 h incubation. This was followed by addition of horseradish peroxidase (HRP) solution and three washes, later addition of TMB substrate and reading the optical density at 450 nm. Optical densities were blank-subtracted and interpolated to the reference standard utilizing the four parameter logistic (4-PL) curve-fit. Cytokine concentrations were normalized with their respective dilution factors and represented in pg/mL. Tables 4 and 5 indicate cytokine levels for compounds 2, 6, 8, 12, and 14 in serum and tumor at different administered doses.
Cytokine analysis from tumor samples: Tumor samples were homogenized in a bead-based homogenizer and lysates were prepared with buffer supplemented with 1% Triton X-100 and protease inhibitors. Cytokine levels were estimated by ELISA and expressed as pg/g tumor.

[4] = CT26 tumor-bearing mice, single i.v. dose

solubility at 24 h [1]: 3.57 mM | concentration at 3.5 h ([2]; plasma, 0.093 mg/kg single i.v., 3.5 h, read-out: Plasma Conc.): 110 ± 10 nM | concentration at 8 h ([2]; plasma, 0.093 mg/kg single i.v., 8 h, read-out: Plasma Conc.): 30 nM | concentration at 3.5 h ([2]; plasma, 0.187 mg/kg single i.v., 3.5 h, read-out: Plasma Conc.): 220 ± 20 nM | concentration at 8 h ([2]; plasma, 0.187 mg/kg single i.v., 8 h, read-out: Plasma Conc.): 40 ± 10 nM | concentration at 3.5 h ([2]; plasma, 0.375 mg/kg single i.v., 3.5 h (Table 3), read-out: Plasma Conc.): 470 ± 60 nM | concentration at 8 h ([2]; plasma, 0.375 mg/kg single i.v., 8 h (Table 3), read-out: Plasma Conc.): 80 ± 10 nM | concentration at 12 h ([2]; plasma, 0.375 mg/kg single i.v., read-out: Plasma Conc.): 50 ± 10 nM | concentration at 3.5 h ([2]; tumor, 0.093 mg/kg single i.v., 3.5 h, read-out: Tumor Conc.): 70 ± 20 nM | concentration at 8 h ([2]; tumor, 0.093 mg/kg single i.v., 8 h, read-out: Tumor Conc.): 60 ± 30 nM | concentration at 3.5 h ([2]; tumor, 0.187 mg/kg single i.v., 3.5 h, read-out: Tumor Conc.): 90 ± 20 nM | concentration at 8 h ([2]; tumor, 0.187 mg/kg single i.v., 8 h, read-out: Tumor Conc.): 120 ± 80 nM | concentration at 3.5 h ([2]; tumor, 0.375 mg/kg single i.v., 3.5 h (Table 3), read-out: Tumor Conc.): 230 ± 120 nM | concentration at 8 h ([2]; tumor, 0.375 mg/kg single i.v., 8 h (Table 3), read-out: Tumor Conc.): 140 ± 50 nM | concentration at 12 h ([2]; tumor, 0.375 mg/kg single i.v., read-out: Tumor Conc.): 110 ± 60 nM | compound levels in tumor [2, 4]: sustained levels in tumor
SMILES: CCn1nc(C)cc1C(=O)Nc1nc2cc(C(N)=O)cc3c2n1C/C=C/Cn1c(NC(=O)c2cc(C)nn2CC)nc2cc(C(=O)N[C@H]4CC[C@H](C(=O)O)CC4)cc(c21)OCCCO3 [Compound 2, (1R,4R)-4-((E)-12-carbamoyl-1,15-bis(1-ethyl-3-methyl-1H-pyrazole-5-carboxamido)-8,9,16,19-tetrahydro-7H-6,10-dioxa-2,14,15a,19a-tetraazacyclopentadeca[3,2,1-cd:8,9,10-c′d′]diindene-4-carboxamido)cyclohexane-1-carboxylic acid sodium salt]
Serum Cytokines IFNβ ([3]; 0.093 mg/kg single i.v., 3.5 h): 446 pg/mL | Serum Cytokines IL-6 ([3]; 0.093 mg/kg single i.v., 3.5 h): 1323 pg/mL | Serum Cytokines TNFα ([3]; 0.093 mg/kg single i.v., 3.5 h): 261 pg/mL | Tumor Cytokines IFNβ ([3]; 0.093 mg/kg single i.v., 3.5 h): 4000 pg/g | Tumor Cytokines IL-6 ([3]; 0.093 mg/kg single i.v., 3.5 h): 4580 pg/g | Tumor Cytokines TNFα ([3]; 0.093 mg/kg single i.v., 3.5 h): 2460 pg/g | Serum Cytokines IFNβ ([3]; 0.093 mg/kg single i.v., 8 h): 64 pg/mL | Serum Cytokines IL-6 ([3]; 0.093 mg/kg single i.v., 8 h): 662 pg/mL | Serum Cytokines TNFα ([3]; 0.093 mg/kg single i.v., 8 h): 210 pg/mL | Tumor Cytokines IFNβ ([3]; 0.093 mg/kg single i.v., 8 h): 955 pg/g | Tumor Cytokines IL-6 ([3]; 0.093 mg/kg single i.v., 8 h): 1100 pg/g | Tumor Cytokines TNFα ([3]; 0.093 mg/kg single i.v., 8 h): 637 pg/g | Serum Cytokines IFNβ ([3]; 0.187 mg/kg single i.v., 3.5 h): 1920 pg/mL | Serum Cytokines IL-6 ([3]; 0.187 mg/kg single i.v., 3.5 h): 3139 pg/mL | Serum Cytokines TNFα ([3]; 0.187 mg/kg single i.v., 3.5 h): 574 pg/mL | Tumor Cytokines IFNβ ([3]; 0.187 mg/kg single i.v., 3.5 h): 4169 pg/g | Tumor Cytokines IL-6 ([3]; 0.187 mg/kg single i.v., 3.5 h): 4798 pg/g | Tumor Cytokines TNFα ([3]; 0.187 mg/kg single i.v., 3.5 h): 3201 pg/g | Serum Cytokines IFNβ ([3]; 0.187 mg/kg single i.v., 8 h): 127 pg/mL | Serum Cytokines IL-6 ([3]; 0.187 mg/kg single i.v., 8 h): 738 pg/mL | Serum Cytokines TNFα ([3]; 0.187 mg/kg single i.v., 8 h): 136 pg/mL | Tumor Cytokines IFNβ ([3]; 0.187 mg/kg single i.v., 8 h): 962 pg/g | Tumor Cytokines IL-6 ([3]; 0.187 mg/kg single i.v., 8 h): 2244 pg/g | Tumor Cytokines TNFα ([3]; 0.187 mg/kg single i.v., 8 h): 531 pg/g | Serum Cytokines IFNβ ([3]; 0.375 mg/kg single i.v., 3.5 h): 8540 pg/mL | Serum Cytokines IL-6 ([3]; 0.375 mg/kg single i.v., 3.5 h): 6014 pg/mL | Serum Cytokines TNFα ([3]; 0.375 mg/kg single i.v., 3.5 h): 1242 pg/mL | Tumor Cytokines IFNβ ([3]; 0.375 mg/kg single i.v., 3.5 h): 8044 pg/g | Tumor Cytokines IL-6 ([3]; 0.375 mg/kg single i.v., 3.5 h): 8103 pg/g | Tumor Cytokines TNFα ([3]; 0.375 mg/kg single i.v., 3.5 h): 6074 pg/g | Serum Cytokines IFNβ ([3]; 0.375 mg/kg single i.v., 8 h): 263 pg/mL | Serum Cytokines IL-6 ([3]; 0.375 mg/kg single i.v., 8 h): 1201 pg/mL | Serum Cytokines TNFα ([3]; 0.375 mg/kg single i.v., 8 h): 160 pg/mL | Tumor Cytokines IFNβ ([3]; 0.375 mg/kg single i.v., 8 h): 1723 pg/g | Tumor Cytokines IL-6 ([3]; 0.375 mg/kg single i.v., 8 h): 2715 pg/g | Tumor Cytokines TNFα ([3]; 0.375 mg/kg single i.v., 8 h): 617 pg/g | Serum Cytokines IFNβ ([3]; 0.375 mg/kg single i.v., 12 h): 14 pg/mL | Serum Cytokines IL-6 ([3]; 0.375 mg/kg single i.v., 12 h): 372 pg/mL | Serum Cytokines TNFα ([3]; 0.375 mg/kg single i.v., 12 h): 50 pg/mL | Tumor Cytokines IFNβ ([3]; 0.375 mg/kg single i.v., 12 h): 323 pg/g | Tumor Cytokines IL-6 ([3]; 0.375 mg/kg single i.v., 12 h): 2794 pg/g | Tumor Cytokines TNFα ([3]; 0.375 mg/kg single i.v., 12 h): 298 pg/g | cytokine levels over time [3, 4]: sustained cytokine levels

Reference: patent US12479858B2, “Macrocyclic compounds as sting agonists and methods and uses thereof” (Lupin Limited, priority 2019, dated 2025)
